This is an account of results in US20200179479A1, “INHIBITION OF ALPHA5BETA1 INTEGRIN WITH ATN-161 AS A NOVEL THERAPY FOR VASCULAR DEMENTIA” (University of Kentucky Research Foundation, priority 2018, published 2020).

One data set relates to IgG. Briefly: IgG immunohistochemistry (BBB permeability, IgG extravasation) in stroked brain. It is filed as in vivo, mouse. The note with it: PSD3; 1 mg/kg IP x3; mean±SD, n=8; Vehicle 70125±53485. Here is the method:
(§1) On PSD3, animals were systemically perfused with PBS (Phosphate Buffered Solution, 1×) for 5 minutes. Brains were removed, flash frozen in liquid nitrogen, and stored at −20 C until use. The brains were coronally sectioned by cryostat at 20 μm and mounted (four per slide, 2 mm separating each section) for staining. Negative controls (no primary antibody) were run in tandem with each target to determine thresholding values.
Sections were fixed in 10% phosphate-buffered formalin. After washing, IgG 568 biotinylated antibody (1:500, Thermo-Fisher Scientific) in 1% bovine serum albumin was applied to the tissue for 2 hours. Slides were then cover slipped (Vector Labs) for imaging on a Nikon Eclipse Ti and software (Nikon, Melville, N.Y., USA). Image J was used to isolate and count IgG positive pixels. Three separate 20× images per core region were taken per section and averaged.

The test system of data set [1] is MMP-9. Briefly: Immunohistochemical staining of MMP-9 in stroked brain. Conditions: mean±SD, n=7. The class given is in vivo, mouse. Here is the method:
as §1
(§2) Sections were fixed in methanol:acetone (1:1), followed by blocking buffer (5% bovine serum albumin (Fisher Scientific) in PBS with 0.1% Triton-X). Sections were incubated in primary antibody overnight at 4 C (anti-rabbit PECAM at 1:100, Fisher Scientific; anti-rat CD49e at 1:250, BD Pharminagen; anti-rat CD45 at 1:200, ThermoFisher Scientific, anti-rabbit Claudin-5 at 1:200, Abcam, anti-rabbit MMP-9 at 1:100, Abcam, and anti-rabbit fibronectin at 1:100, Abcam). Sections were washed and placed in fluorophore-conjugated secondary antibody, followed by NucBlue cell nucleus counterstain (Fisher Scientific) at room temperature (Vector Labs, 1:250), then cover slipped (Vector Labs) and imaged on a Nikon Eclipse Ti and software (Nikon, Melville, N.Y., USA). Image J was used to quantify all Immunofluorescence positive pixels. CD45: One 4× image per all four sections were taken and averaged. […]

Another data set deals with CXCL12. Briefly: qPCR of ipsilateral cortex at PSD3, CXCL12. The class given is in vivo, mouse. The note with it: relative to sham; mean±SD, n=8; Sham 1.015±0.1964, Vehicle 0.5271±0.1779. Here is the method: (§3) On PSD3, brains were removed and sectioned at 2 mm where the ipsilateral cortical tissue and corresponding contralateral cortical tissue were isolated. All sections per animal were combined and homogenized in Trizol (Life Technologies). RNA extraction was performed according to the RNA extraction kit provided by the manufacturer (Life Technologies). RNA was converted to cDNA using a high capacity cDNA reverse transcriptase kit (Applied Bioscience, Grand Island, N.Y., USA). 18S (control; Mm03928990_g1), collagen IV (Mm00483669_m1), IL-1β (Mm00434228_m1), CXCL12 (Mm00445553_m1), and MMP9 (Mm00442991_m1) Taqman genes were analyzed using Real-time PCR (ViiA7, Life Technologies). Data was analyzed as fold change comparing vehicle and ATN-161 treated mice as a % control (sham).

For data set [2] the following is noted: Phase I and II clinical oncology studies, 1 mg/kg 10-minute infusions: dry mouth, cellulitis, paresthesia in one out of four patients; cited from earlier work.
Data set [3] concerns the target T1, α5β1 integrin (Mus musculus, UniProt P09055+P11688).
T1 construct: Mice (WT, α5KO, DB) are subjected to either sham or BCAS (0.18 mm ID coils) surgery; from tissue; host or cells: living mouse; brain (cortex)
Briefly: BCAS mouse model, α5 staining in cortex. It is filed as in vivo. The note with it: 14 days, 1 mg/kg i.p. after surgery and every other day to day 12, n=4, preliminary data. Here is the method:
Representative images within the cortex of α5 staining in BCAS animals treated with ATN-161 (1 mg/kg; i.p.). ATN-161 n=4
Quantification of α5-positive pixel density. ***p≤0.001 compared to sham group.
(§4) Mice (WT, α5KO, DB) are subjected to either sham or BCAS (0.18 mm ID coils) surgery. Euthanasia and brain tissue extraction, and processing for immunohistochemistry or western blot analysis (see below) will occur at early (14 days) or late (30 and 60 days) time points following BCAS. This will allow correlation of α5β1 integrin expression levels with the progression of brain injury over time, whether it could potentially contribute to this pathology early and/or late, and determine whether this is influenced by the diabetic phenotype prior to overt cerebrovascular pathology.

In another data set the test system is collagen IV. Briefly: qPCR of ipsilateral cortex at PSD3, collagen IV. The class given is in vivo, mouse. The note with it: relative to sham; mean±SD, n=8; Sham 1.018±0.1573, Vehicle 0.3543±0.1013. How it is done:
as §3

Data set [4] relates to angiogenesis and tumor growth. The note with it: Donate et al.; cited from earlier work.
For data set [5], the target named is T2, integrin α5β1 (Mus musculus, UniProt P09055+P11688).
T2 construct: Animals received an IP injection of either Vehicle (sterile PBS) or ATN-161; from tissue; host or cells: living mouse; brain / cerebrovasculature
Briefly: Immunohistochemistry of integrin α5β1 (CD49e) in stroked brain. It is filed as in vivo. Conditions: 1 mg/kg IP x3; mean±SD, n=7; Vehicle 308484±53485; p=0.0835. Here is the method:
as §1, §2

The subject of the next data set is IL-1β. Briefly: qPCR of ipsilateral cortex at PSD3, IL-1β. It is filed as in vivo, mouse. Conditions: relative to sham; mean±SD, n=7; Sham 1.023±0.1666, Vehicle 27.04±19.96. Here is the method:
as §3
(In qPCR the cycle at which signal appears reflects the starting amount.)

Data set [6] can be described thus: Physiological measurements (MouseOx) and body weight after reperfusion in stroked mice. It is filed as in vivo, mouse. Here is the method: (§5) Mice underwent transient tandem ipsilateral common carotid artery/middle cerebral artery (CCA/MCA) occlusion for 60 minutes as previously published, followed by reperfusion for 1-3 days. Briefly, a small burr hole is created directly over the M2 branch of the MCA, and a 0.0005 inch metal filament is placed under the artery on both sides of the burr hole. The CCA was then isolated and occluded using an aneurysm clip. Blood flow was determined with the Laser Doppler Perfusion Monitor (Perimed, Ardmore, Pa., USA). Animals that received less than 80% occlusion rate from baseline (i.e. pre-occlusion) were excluded from analysis. Sham animals underwent the listed procedure without vascular occlusion. All mice were allowed to recover to post-stroke day (PSD)3, during which daily body weights were measured.
Immediately following reperfusion, heart, rate, pulse distension, and body temperature were recorded using MouseOx (Starr Life Science, Holliston, Mass., USA). After 5 minutes, sterile PBS (Vehicle) or ATN-161 was injected via IP (as described below); mice were continually observed for 15 minutes post reperfusion.

In data set [7] the target is T2, integrin α5β1. Briefly: MRI (ADC and T2-weighted) infarct and edema volume after experimental ischemic stroke. It is filed as in vivo. How it is done: as §5
Animals received an IP injection of either Vehicle (sterile PBS) or ATN-161 (lmg/kg, Medkoo Biosciences, Morrisville, N.C., USA) immediately after reperfusion, PSD1 and on PSD2. […] Accounting for edema volume, infarct size based on TTC images was analyzed with Image J (NH) software as:
PSD3 animals were anesthetized with isoflurane and placed on a heated bed where body temperature and breathing rate were carefully monitored throughout the scan. […] All images were analyzed with ITK-SNAP (www.itksnap.org) by a blinded, independent neuroradiologist. […]

The target in data set [8] is T2, integrin α5β1. Briefly: 11-point behavioral Neuroscore after experimental ischemic stroke. The class given is in vivo. Conditions: vs Vehicle. How it is done:
as §5
Animals received an IP injection of either Vehicle (sterile PBS) or ATN-161 (lmg/kg, Medkoo Biosciences, Morrisville, N.C., USA) immediately after reperfusion, PSD1 and on PSD2. Ischemic stroke was confirmed on 2 mm sections stained with […] (TTC; BD, Sparks, M D, USA) or Magnetic Resonance Imaging on PSD3. Accounting for edema volume, infarct size based on TTC images was analyzed with Image J (NH) software as: […]

For a further data set, the system named is Claudin-5. Briefly: Immunofluorescence of Claudin-5 in stroked brain. It is filed as in vivo, mouse. The note with it: mean±SD, n=6; Vehicle 19830±5538. Here is the method:
as §1, §2

The test system of data set [9] is MMP-9. Briefly: qPCR of ipsilateral cortex at PSD3, MMP-9. The class given is in vivo, mouse. The note with it: relative to sham; mean±SD, n=7; Sham 1.018±0.1759, Vehicle 6.761±5.321. How it is done:
as §3

The next data set concerns GFAP. Briefly: BCAS mouse model, GFAP (astrocyte marker) staining in striatum. The class given is in vivo. The note with it: 14 days, striatum/white matter, 1 mg/kg i.p. after surgery and days 2, 4, 6, 8, 10, 12, n=4. How it is done: Representative images within the striatum of GFAP (astrocyte marker) staining in BCAS animals treated with ATN-161 (1 mg/kg; i.p.); treatment immediately after surgery and on post-stenosis days 2, 4, 6, 8, 10, 12. ATN-161: n=4
Quantification of GFAP-positive pixel density. **p≤0.01 compared to sham group.
as §4

The target in data set [10] is T1, α5β1 integrin. Briefly: BCAS mouse model, y-maze % spontaneous alternation. It is filed as in vivo. Conditions: post-stenosis day 14, 1 mg/kg i.p. after surgery and days 2, 4, 6, 8, 10, 12, n=4. Here is the method:
On post-stenosis day 14, mice underwent y-maze testing and % spontaneous alternation (working memory) was quantified. BCAS animals were treated with vehicle or ATN-161 (1 mg/kg; i.p.) treatment immediately after surgery and on post-stenosis days 2, 4, 6, 8, 10, 12. […] Sham: n=4; BCAS: n=8; ATN-161: n=4
as §4

In data set [11] the test system is α5β1 integrin. Conditions: single IP dose 24 hours after MCAO; Wu et al.; cited from earlier work.
Where [12] appears, read: IP ATN-161 5 min after reperfusion, vs Vehicle.

Entries after “also recorded” stand apart in the source; their conditions may differ.

T2 sequence (P11688 45-898 limits assumed): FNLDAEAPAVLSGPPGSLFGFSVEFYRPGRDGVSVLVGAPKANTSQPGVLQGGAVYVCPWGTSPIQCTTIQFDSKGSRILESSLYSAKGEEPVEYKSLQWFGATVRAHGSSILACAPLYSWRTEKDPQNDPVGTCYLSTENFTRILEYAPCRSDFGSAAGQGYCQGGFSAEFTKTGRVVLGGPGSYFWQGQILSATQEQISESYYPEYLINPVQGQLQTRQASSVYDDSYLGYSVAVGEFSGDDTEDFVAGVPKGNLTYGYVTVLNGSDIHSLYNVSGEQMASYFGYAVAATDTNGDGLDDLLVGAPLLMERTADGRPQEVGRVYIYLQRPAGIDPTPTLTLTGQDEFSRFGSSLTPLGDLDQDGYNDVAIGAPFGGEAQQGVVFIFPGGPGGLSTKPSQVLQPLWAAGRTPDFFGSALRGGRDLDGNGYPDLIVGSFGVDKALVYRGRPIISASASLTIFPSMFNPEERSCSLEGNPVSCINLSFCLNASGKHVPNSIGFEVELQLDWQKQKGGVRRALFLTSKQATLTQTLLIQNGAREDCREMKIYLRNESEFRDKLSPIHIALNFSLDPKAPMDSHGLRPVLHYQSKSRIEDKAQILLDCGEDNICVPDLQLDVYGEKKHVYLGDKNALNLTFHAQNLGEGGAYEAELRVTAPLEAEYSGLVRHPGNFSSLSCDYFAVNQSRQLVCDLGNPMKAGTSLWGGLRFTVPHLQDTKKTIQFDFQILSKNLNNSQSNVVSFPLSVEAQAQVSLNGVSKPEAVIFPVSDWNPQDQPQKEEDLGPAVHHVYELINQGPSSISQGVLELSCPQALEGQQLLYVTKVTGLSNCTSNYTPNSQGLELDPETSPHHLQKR
T2 sequence (P11688 899-1053 limits assumed): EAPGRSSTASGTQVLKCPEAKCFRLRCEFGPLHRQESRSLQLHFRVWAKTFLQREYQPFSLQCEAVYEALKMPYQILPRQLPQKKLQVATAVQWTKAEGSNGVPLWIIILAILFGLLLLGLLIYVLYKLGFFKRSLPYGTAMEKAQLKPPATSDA
T2 sequence (P09055 21-798): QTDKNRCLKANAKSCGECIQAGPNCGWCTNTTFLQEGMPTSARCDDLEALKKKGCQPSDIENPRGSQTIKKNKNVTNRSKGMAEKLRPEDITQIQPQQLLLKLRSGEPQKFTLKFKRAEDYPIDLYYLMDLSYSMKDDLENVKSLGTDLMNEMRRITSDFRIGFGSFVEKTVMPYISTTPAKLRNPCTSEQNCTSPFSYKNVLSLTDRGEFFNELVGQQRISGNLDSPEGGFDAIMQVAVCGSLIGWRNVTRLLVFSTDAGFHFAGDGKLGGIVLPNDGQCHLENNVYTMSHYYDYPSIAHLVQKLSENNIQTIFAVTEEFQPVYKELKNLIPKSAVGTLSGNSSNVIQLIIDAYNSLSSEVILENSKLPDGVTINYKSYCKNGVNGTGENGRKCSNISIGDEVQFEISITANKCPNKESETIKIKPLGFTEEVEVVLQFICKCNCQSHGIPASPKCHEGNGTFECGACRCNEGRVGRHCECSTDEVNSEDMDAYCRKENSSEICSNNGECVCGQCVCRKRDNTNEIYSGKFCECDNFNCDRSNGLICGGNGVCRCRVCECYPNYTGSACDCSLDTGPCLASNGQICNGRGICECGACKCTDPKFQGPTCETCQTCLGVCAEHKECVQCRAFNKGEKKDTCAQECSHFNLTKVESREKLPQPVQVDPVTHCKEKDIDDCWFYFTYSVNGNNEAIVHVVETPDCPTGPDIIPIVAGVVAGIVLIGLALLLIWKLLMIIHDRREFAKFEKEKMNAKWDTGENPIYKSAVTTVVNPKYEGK
T1 sequence (P11688 45-898 limits assumed): as the sequence (P11688 45-898 limits assumed) above
T1 sequence (P11688 899-1053 limits assumed): as the sequence (P11688 899-1053 limits assumed) above
T1 sequence (P09055 21-798): as the sequence (P09055 21-798) above

Take Ac-PHSCN-NH2 [ATN-161]: in the data set on IgG, the “IgG positive pixel analysis in the core” value is reported as 16753±23348 positive pixels. For the same substance, in the data set on MMP-9 [1] (Vehicle 189516±170441, p=0.0450), the “MMP-9 positive pixels at PSD3 in the peri-infarct” value is 42227±180171 positive pixels. The “MMP-9 positive pixels at PSD3 in the core” value in the data set on MMP-9 [1] (Vehicle 443691±220951, p=0.0734) is reported as 232262±68098 positive pixels. For the same substance, the “qPCR CXCL12, ipsilateral cortex at PSD3” value in the data set with CXCL12 is reported as 0.8488±0.2846 fold change. For the same substance, the “safety and tolerability in clinical trials” value in data set [2] is “safe and well-tolerated; also recorded: limited side effects”. Besides, the “α5 expression (α5-positive pixel density) in cortex following BCAS” value on α5β1 integrin [3] is reported as “decreases α5β1 integrin expression compared to controls; also recorded: decreases α5 expression compared to controls”. Further, the “qPCR collagen IV, ipsilateral cortex at PSD3” value in the data set on collagen IV was found to be 0.8563±0.6898 fold change. Further, the “doses producing the most significant reduction in activity (angiogenesis and tumor growth)” value in data set [4] is 1 to 5 mg/kg. The “Integrin α5β1 analysis at PSD3 in peri-infarct” value on integrin α5β1 [5] was 162166±23348 positive pixels. Also, in the data set on IL-1β, the “qPCR IL-1β, ipsilateral cortex at PSD3” value came out at 11.89±9.235 fold change. Also, in data set [6] (setting [12]), the “percent change of body temperature following reperfusion” value was “did not show any differences”, the “percent change of heart rate (bpm) following reperfusion” value is “did not show any differences” and the “percent change of pulse distension following reperfusion” value is “did not show any differences”. Further, in data set [6] (IP ATN-161, vs Vehicle), the “percent change of body weight following ischemic stroke” value is reported as “did not show any differences”. Besides, the “Infarct volume analysis of T2 weighted MRI scan following MCAo” value at integrin α5β1 [7] (1 mg/kg, PSD 3, n=8 vs Vehicle n=7, p≤0.05) was “reduces infarct volume; also recorded: decreased infarct volumes”. Moreover, at integrin α5β1 [7] (PSD3, 1 mg/kg IP after reperfusion, PSD1, PSD2, absent edema volume, mean±SD, n=8, Vehicle 17.9±4.677), the “ADC analysis for infarct volume” value was determined as 12.24±3.758. In addition, on integrin α5β1 [8], the “11-point Neuroscore on PSD1” value is “no difference”. In the data set on Claudin-5, the “Claudin-5 positive pixels in the core at PSD3” value was determined as 44220±19878 positive pixels. Moreover, in the data set with MMP-9 [9], the “qPCR MMP-9, ipsilateral cortex at PSD3” value stood at 2.757±2.401 fold change. Further, the “inflammation (GFAP-positive pixel density, astrocyte activation) following BCAS” value in the data set on GFAP is “decreases inflammation compared to controls”. Moreover, the “cognitive outcome, y-maze % spontaneous alternation (working memory)” value at α5β1 integrin [10] is “improves cognitive outcome; also recorded: A positive trend is observed”.
For PHSRN, the “effect after rat transient MCAO” value in the data set with α5β1 integrin [11] is “neuroprotective, proangiogenic and increased neurogenesis”.
